Measured values reported in patent US20240368123A1, “AROMATIC RING-CONTAINING BIOLOGICAL ANTAGONIST, AND PREPARATION METHOD THEREFOR AND USE THEREOF” (SHANGHAI HANSOH BIOMEDICAL CO., LTD., priority 2021, published 2024).

Legend:
[1] = Liver microsomal metabolism stability test, human; type: in vitro ADME; conditions: for half-life at 1 μM: human liver microsomes 0.5 mg/mL, compound 1 μM, NADPH/UDPGA; for Remaining rate: human liver microsomes, 60 min
Protocol: The purpose of this experiment was to detect the stability of the example compounds in liver microsomes of rats, dogs and humans.
• Formulation of working solution of compounds: compound stock solution was added to phosphate buffer to a final concentration of 20 μM.
Dilution was performed with 100 mM phosphate buffer to a final concentration of 0.625 mg/mL.
NADPH (reduced nicotinamide adenine dinucleotide phosphate) and UDPGA (uridine diphosphate glucuronic acid) were weighed, 100 mM phosphate buffer was added, and the final concentration was 20 mM.
1 mg of Alamethicin was weighed, and 200 μL of DMSO was added to formulate a 5 mg/mL solution. Then dilution was performed with phosphate buffer to a final concentration of 50 μg/mL.
Stop solution: the stop solution contains 100 ng/mL labetalol hydrochloride and 400 ng/mL tolbutamide and cold acetonitrile as internal standard.
400 μL of formulated liver microsomes, 25 μL of compound working solution and 25 μL of Alamethicin were added in sequence to the 96-well plate, and pre-incubated at 37° C. for 10 min. Then 50 μL of formulated NADPH/UDPGA was added to start the reaction and the mixture was incubated at 37° C. The total volume of the reaction system was 500 μL. The final contents of each component are as follows:
• Instrument: Shimadzu LC-30 AD; • Chromatographic column: XBridge® C18 (50*4.6 mm, 5 μm particle size); • Mobile phase: A: 0.1% formic acid solution, B: methanol Wash gradient: 0.2-1.6 min 5% A to 95% A, 3.0-3.1 min 95% A to 5% A Run time: 4.0 min.
• Instrument: API5500 liquid chromatography mass spectrometer, AB Sciex; • Ion source: electrospray ionization source (ESI); • Drying gas: N2, temperature 500° C.; • Electrospray voltage: 5000 V; • Detection mode: positive ion detection; • Scanning mode: reaction monitoring (MRM) mode.

[2] = system: spontaneously hypertensive rat (SHR) model; assay: Pharmacodynamic evaluation on blood pressure in spontaneously hypertensive rats; type: in vivo; conditions: P.O, 30 mpk, 1-8 h after administration, P<0.05
Source text: This experiment used a spontaneously hypertensive rat (SHR) model to evaluate the pharmacodynamic effect of the test compounds on the blood pressure and heart rate of the model.
Kent Scientific CODA non-invasive blood pressure system.
Spontaneously hypertensive rats (SHR) were provided by Beijing Vital River Laboratory Animal Technology Co., Ltd., male, 150-200 g, 13-15 weeks old, 50 rats.
After animals arrived at the experimental facility, the animals were adapted to the animal facility for 5-7 days. 4.2 After the adaptation period, the animals were adapted to the tail oversleeve restrain for 3 days, and the tail oversleeve restrain was performed twice a day. After the last restrain adaptation, the basal blood pressure was measured, and the animals were randomly divided into groups according to the basal blood pressure. There was no significant difference between the average systolic blood pressure of animals in each group, and the number of animals in each group met the requirements of statistical testing and pharmacodynamic guidelines. 4.3 On the second day after grouping, the animals were administered according to experimental design and grouping (P.O, 5 mL/kg), and the systolic blood pressure (SBP), diastolic blood pressure (DBP), mean arterial pressure (MAP) and heart rate (HR) of the animals were measured before administration and at 1, 2, 4, 6, 8 and 24 h after administration using tail oversleeve method.
Statistical differences between groups were analyzed by Two-way ANOVA test. Among them, P<0.05 indicated a significant difference, and P<0.01 indicated an extremely significant difference.

[3] = Rat pharmacokinetic evaluation test, oral administration; type: in vivo; conditions: male, SD rats, p.o. 5 mg/kg, plasma; for MRT inf: read-out: MRT0-∞
Protocol: SD rats were used as test animals to study the pharmacokinetic behavior of the compounds of the present invention in the rat body (plasma) after oral administration at a dose of 5 mg/kg.
3 SD rats/group, male, from Shanghai Jiesijie Experimental Animal Co., Ltd., animal production license number (SCXK (Shanghai) 2013-0006 N0.311620400001794).
• 0.5% CMC-Na (1% Tween80) was dissolved with ultrasound, and formulated into a clear solution or homogeneous suspension.
• p.o. respectively after the rats were fasted overnight; • the p.o. dose was 5 mg/kg and the administration volume was 10 mL/kg.
After oral administration of rats, 0.2 mL of blood was collected from the jugular vein at 0.25 h, 0.5 h, 1.0 h, 2.0 h, and 4.0 h, placed in an EDTA-2K test tube, centrifuged at 6000 rpm for 6 min at 4° C. to separate plasma which was stored at −80° C.; the rats can eat 4 h after administration.
• 1) 160 μL of acetonitrile was added to 40 μL of plasma sample for precipitation, mixed and centrifuged at 3500×g for 5 to 20 min. • 2) the treated supernatant solution was taken and subjected to LC/MS/MS to analyze the concentrations of the test compounds. LC/MS/MS analysis instrument: AB Sciex API 4000 Qtrap.
• Liquid phase conditions: Shimadzu LC-20AD pump • chromatographic column: AgilentZORBAX XDB-C18 (50×2.1 mm, 3.5 μm) mobile phase: liquid A was 0.1% aqueous formic acid solution, liquid B was acetonitrile • flow rate: 0.4 mL/min • Elution time: 0-4.0 min, the eluent was as follows:
The main pharmacokinetic parameters were calculated using WinNonlin 6.1.

[4] = biological target: T1, CYP450 enzyme subtype 2D6 (Homo sapiens, UniProt P10635); assay: CYP enzyme single point inhibition test, 2D6; type: in vitro ADME; conditions: human liver microsomes, single point method
T1 construct: Human liver microsome incubation system was used; from tissue; host or cells: human liver microsomes
Protocol: (§1) Human liver microsome incubation system was used, and the single point method was used to quickly predict the inhibition on CYP450 enzyme subtypes (1A2, 2C19, 2D6, 3A4-M, and 3A4-T) by compounds.
(§2) For 2.5 mM NADPH, 4.165 mg of NADPH (reduced nicotinamide adenine dinucleotide phosphate) was weighed and 100 mM phosphate buffer was added to 2 mL. For 0.25 mg/mL microsomes, 50 μL of 20 mg/mL microsomes was added to 4 mL of 100 mM phosphate buffer and mixed evenly.
(§3) The test example compound was weighed, diluted to 10 mM with DMSO, and then diluted to 100 μM with 100 mM phosphate buffer.
(§4) • 1. 40 μL of liver microsomes, 10 μL of substrate, and 10 μL of test compound were added in a 96-well plate and the mixture was pre-incubated for 3 min. • 2. 40 μL of NADPH was added. • 3. At 20 min, 300 μL of acetonitrile stop solution containing internal standard was added. • 4. The mixture was centrifuged and the sample was loaded.

[5] = biological target: T2, CYP450 enzyme subtype 3A4-M (Homo sapiens, UniProt P08684); assay: CYP enzyme single point inhibition test, 3A4-M; type: in vitro ADME; conditions: human liver microsomes, single point method
T2 construct: Human liver microsome incubation system was used; from tissue; host or cells: human liver microsomes
Protocol: as §1, §2, §3, §4

[6] = biological target: T3, CYP450 enzyme subtype 3A4-T (Homo sapiens, UniProt P08684); assay: CYP enzyme single point inhibition test, 3A4-T; type: in vitro ADME; conditions: human liver microsomes, single point method
T3 construct: Human liver microsome incubation system was used; from tissue; host or cells: human liver microsomes
Protocol: as §1, §2, §3, §4

T3 sequence (P08684 whole entry): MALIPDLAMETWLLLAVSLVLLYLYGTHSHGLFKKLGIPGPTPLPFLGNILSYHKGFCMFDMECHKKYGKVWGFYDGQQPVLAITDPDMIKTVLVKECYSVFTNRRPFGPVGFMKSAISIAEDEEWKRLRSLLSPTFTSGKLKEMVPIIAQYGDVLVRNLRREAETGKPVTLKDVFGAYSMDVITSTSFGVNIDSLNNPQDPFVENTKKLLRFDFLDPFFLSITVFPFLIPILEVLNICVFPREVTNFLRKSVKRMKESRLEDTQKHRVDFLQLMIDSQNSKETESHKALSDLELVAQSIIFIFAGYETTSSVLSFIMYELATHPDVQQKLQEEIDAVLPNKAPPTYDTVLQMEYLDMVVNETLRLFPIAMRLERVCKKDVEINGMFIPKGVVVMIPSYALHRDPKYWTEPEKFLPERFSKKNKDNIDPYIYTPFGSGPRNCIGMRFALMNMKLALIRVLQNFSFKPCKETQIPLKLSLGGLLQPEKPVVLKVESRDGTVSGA
T2 sequence (P08684 whole entry): as above
T1 sequence (P10635 whole entry): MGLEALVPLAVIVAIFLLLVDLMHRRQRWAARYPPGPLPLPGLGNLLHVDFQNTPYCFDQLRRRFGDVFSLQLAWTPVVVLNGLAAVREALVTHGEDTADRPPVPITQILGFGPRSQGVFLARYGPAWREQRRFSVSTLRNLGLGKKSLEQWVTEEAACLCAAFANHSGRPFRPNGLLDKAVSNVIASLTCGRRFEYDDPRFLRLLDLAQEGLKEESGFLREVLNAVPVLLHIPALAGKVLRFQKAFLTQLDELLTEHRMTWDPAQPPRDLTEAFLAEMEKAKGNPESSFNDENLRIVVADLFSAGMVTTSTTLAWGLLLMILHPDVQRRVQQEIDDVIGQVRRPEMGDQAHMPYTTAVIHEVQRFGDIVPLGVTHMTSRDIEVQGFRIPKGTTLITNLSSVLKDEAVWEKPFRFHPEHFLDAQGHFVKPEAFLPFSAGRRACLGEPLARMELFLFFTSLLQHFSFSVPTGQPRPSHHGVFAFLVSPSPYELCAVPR

SMILES | half-life at 1 μM [1] | Remaining rate [1] | blood pressure (systolic blood pressure, diastolic blood pressure, mean arterial pressure) compared with the vehicle group [2] | AUC(0-inf) [3] | Cmax [3] | Tmax [3] | MRT inf [3] | IC50 [4] | IC50 [5] | IC50 [6]
[2H]C([2H])(OCC)c1cc(CN2C(=O)C3(CCCC3)N=C2CCCC)ccc1-c1ccccc1S(=O)(=O)Nc1noc(C)c1Cl [Example 49, 4′-((2-butyl-4-oxo-1,3-diazospiro[4.4]non-1-en-3-yl)methyl)-N-(4-chloro-5-methylisoxazol-3-yl)-2′-(ethoxydeuteriummethyl)-[1,1′-biphenyl]-2-sulfonamide] | 26.2 min | 30.7% | significantly reduced blood pressure |  |  |  |  |  |  | 
CCCCC1=NC2(CCCC2)C(=O)N1Cc1ccc(-c2ccccc2S(=O)(=O)Nc2noc(C)c2Br)c(COCC)c1 [Example 46, 2-[4-[(2-butyl-4-oxo-1,3-diazaspiro[4.4]non-1-en-3-yl)methyl]-2-(ethoxymethyl)phenyl]-N-(4-bromo-5-methyl-isoxazol-3-yl)benzsulfamide] | 28.9 min | 23.8% |  | 13800 ng·h/mL | 2300 ng/mL | 30 min | 396 min | > 100 µM | 16.7 µM | > 100 µM
CCCCC1=NC2(CC3CC3C2)C(=O)N1Cc1ccc(-c2ccccc2S(=O)(=O)Nc2noc(C)c2C)c(COCC)c1 (stereo not shown) [Example 87, 4′-((2′-butyl-5′-oxaspiro[bicyclo[3.1.0]hexane-3,4′-imidazole]-1′(5′H)-yl)methyl)-N-(4,5-dimethylisoxazol-3-yl)-2′-(ethoxymethyl)-[1,1′-biphenyl]-2-sulfonamide] |  |  |  | 9760 ng·h/mL | 2630 ng/mL | 30 min | 228 min |  |  | 
